Columns and labels:
mGlu7 (HA-mGlu7-WT) = biological target: T1, mGlu7 (HA-mGlu7-WT) (Homo sapiens, UniProt Q14831); experiment: thallium flux assay (GIRK) in HEK cells stably expressing the receptor, agonist concentration-response; format: cell-based
T1 construct: gene GRM7; full-length human mGlu7a isoform (NM_000844.4), HA-tagged, stably expressed in HEK/GIRK cells

mGlu7 (HA-mGlu7-I154T) = biological target: T2, mGlu7 (HA-mGlu7-I154T) (Homo sapiens, UniProt Q14831, I154T); experiment: as above; format: cell-based
T2 construct: gene GRM7; full-length human mGlu7a isoform, HA-tagged, I154T, stably expressed in HEK/GIRK cells
T2 sequence (Q14831 35-915 I154T): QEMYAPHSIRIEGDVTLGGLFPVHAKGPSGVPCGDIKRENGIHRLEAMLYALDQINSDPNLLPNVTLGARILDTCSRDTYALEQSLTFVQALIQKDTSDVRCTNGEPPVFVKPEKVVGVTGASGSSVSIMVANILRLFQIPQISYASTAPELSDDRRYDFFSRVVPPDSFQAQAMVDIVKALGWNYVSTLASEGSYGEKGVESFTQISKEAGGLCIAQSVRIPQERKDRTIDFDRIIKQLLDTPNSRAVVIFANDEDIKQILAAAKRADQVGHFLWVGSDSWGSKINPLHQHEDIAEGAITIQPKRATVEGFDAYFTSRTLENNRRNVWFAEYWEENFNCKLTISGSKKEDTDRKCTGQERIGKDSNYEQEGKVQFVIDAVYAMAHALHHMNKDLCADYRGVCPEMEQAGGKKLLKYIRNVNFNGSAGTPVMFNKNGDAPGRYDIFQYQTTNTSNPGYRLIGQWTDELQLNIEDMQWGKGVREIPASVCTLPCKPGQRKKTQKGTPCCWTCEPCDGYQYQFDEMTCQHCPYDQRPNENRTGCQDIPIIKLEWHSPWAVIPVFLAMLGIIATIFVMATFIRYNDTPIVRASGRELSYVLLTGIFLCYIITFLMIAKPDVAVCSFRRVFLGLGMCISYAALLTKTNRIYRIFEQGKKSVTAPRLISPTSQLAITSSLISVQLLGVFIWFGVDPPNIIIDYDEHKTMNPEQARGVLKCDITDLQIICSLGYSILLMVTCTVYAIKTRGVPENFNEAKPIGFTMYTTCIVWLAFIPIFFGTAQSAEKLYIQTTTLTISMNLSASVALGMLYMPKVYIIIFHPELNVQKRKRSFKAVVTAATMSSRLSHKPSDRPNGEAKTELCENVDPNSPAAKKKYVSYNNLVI

T1 sequence (Q14831 35-915): as the sequence (Q14831 35-915 I154T) above, with T120I counted along it

## N[C@@H](CCP(=O)(O)O)C(=O)O [L-AP4]
mGlu7 (HA-mGlu7-WT)
  EC50: 176 µM
mGlu7 (HA-mGlu7-I154T)
  EC50: 540 µM
